Values quoted from earlier work, collected in patent publication US8557836B2 (priority 2008, dated 2013).

System: M2 ion channel with mutations at M2 residues 27, 30, 31, and 34
Details: mutations at M2 residues 27, 30, 31, and 34 in the M2 transmembrane domain; cited from earlier work

In the case of C1CCC2(CC1)CCN(C1=NCCN1)CC2 [BL-1743, 3-(4,5-dihydro-1H-imidazol-2-yl)-3-azaspiro[5,5]undecane hydroiodide, reference compound], the “resistance to BL-1743 induced by amantadine resistance mutations” value is given as “complete”.
